Data from patent publication US10046060B2, “Co-administration of an agent linked to an internalization peptide with an anti-inflammatory” (NoNO Inc., priority 2007, dated 2018).
Ends that are not written are not given here.

Experiments:
[1] = tested on: humans; test: Safety, Tolerability and Pharmacokinetic Study in humans: blood histamine; assay type: in vivo, human
Method: We carried out a Safety, Tolerability and Pharmacokinetic Study of Tat-NR2B9c in humans. Subjects were either normal, healthy, non-smoking males or post-menopausal or surgically sterile female subjects with a minimum age of 18 years. The subjects were either administered Tat-NR2B9c, Lot #: 124-134-001B, or were given placebo (Phosphate Buffered Saline), Lot #: 124-134-001A, administered as an intravenous infusion (10±1 minutes). Four subjects were dosed in each of Cohorts 1 to 3, and 10 subjects were dosed in each of Cohorts 4 to 8. All 62 subjects completed the study. Treatment periods for each cohort were as follows: Cohort 1: Sep. 14, 2006; Cohort 2: Sep. 26, 2006; Cohort 3: Oct. 6, 2006; Cohort 4: Oct. 20, 2006; Cohort 5: Nov. 6, 2006; Cohort 6: Dec. 4, 2006; Cohort 7: Dec. 17, 2006; Cohort 8: Feb. 25, 2007.
During the study period, 11 blood samples were collected for pharmacokinetic analysis from each subject at the following timepoints: 0.00 (pre-dose), 0.08 (5 minutes), 0.17 to 0.25 (10 to 15 minutes, precisely at the end of each individual drug infusion), 0.33 (20 minutes), 0.50, 0.75, 1.00, 2.00, 6.00, 12.00, and 24.00 hours post-dose. In addition, 8 blood samples were collected for histamine analysis from each subject at the following timepoints: 0.00 (pre-dose), and at 0.08 (5 minutes), 0.17 (10 minutes), 0.25, 0.50, 1.00, 2.00, and 24.00 hours post-dose.

[2] = tested on: Beagle dogs; test: GLP cardiovascular telemetry study, escalating doses (CRM Study No. 691106); assay type: in vivo, dog
Method: In a GLP cardiovascular telemetry study in unrestrained conscious Beagle dogs (CRM Study No. 691106), 6 animals (3 males, 3 females) were administered escalating doses of Tat-NR2B9c (0.25, 1.0, or 5.0 mg/kg gross peptide), with a washout period of 3 days between dose levels. […] Moreover, the time-frame between the low dose (0.25 mg/kg) and the high dose (5.0 mg/kg) was about 6 days, i.e., of insufficient duration to allow the generation of an immune response. The effect is thus caused by a direct degranulation of mast cells causing histamine release.

Q: With YGRKKRRQRRRKLSSIESDV [Tat-NR2B9c] as the sequence, how does the “Number of Subjects with Histamine levels >10 nmol/L” value (shortened to “Number of Subjects”) ([1]; NA-1 0.75 mg/kg (n = 8), Day 1, 0.08 hr) read?
A: 0

Q: And the “Number of Subjects” value ([1]; NA-1 0.75 mg/kg (n = 8), Day 1, 0.17 hr)?
A: 0

Q: What about the “Number of Subjects” value ([1]; NA-1 0.75 mg/kg (n = 8), Day 1, 0.25 hr) of the same sequence?
A: 0

Q: And the “Number of Subjects” value ([1]; NA-1 0.75 mg/kg (n = 8), Day 1, 0.50 hr)?
A: 0

Q: What about the “Number of Subjects” value ([1]; NA-1 0.75 mg/kg (n = 8), Day 1, 1.00 hr) of the same sequence?
A: 0

Q: What about the “Number of Subjects” value ([1]; NA-1 0.75 mg/kg (n = 8), Day 1, 2.00 hr) of the same sequence?
A: 0

Q: And the “Number of Subjects” value ([1]; NA-1 0.75 mg/kg (n = 8), Day 1, 24.00 hr)?
A: 0

Q: What about the “Number of Subjects” value ([1]; NA-1 0.75 mg/kg (n = 8), Day 7) of the same sequence?
A: 0

Q: And the “Number of Subjects” value ([1]; NA-1 0.75 mg/kg (n = 8), Day 14)?
A: 0

Q: And the “Number of Subjects” value ([1]; NA-1 0.75 mg/kg (n = 8), Day 28 End-of-study)?
A: 0

Q: What about the “Number of Subjects” value ([1]; NA-1 0.75 mg/kg (n = 8), Screening) of the same sequence?
A: 0

Q: What about the “Number of Subjects” value ([1]; NA-1 1.50 mg/kg (n = 8), Day 1, 0.00 hr) of the same sequence?
A: 0

Q: What about the “Number of Subjects” value ([1]; NA-1 1.50 mg/kg (n = 8), Day 1, 0.08 hr) of the same sequence?
A: 0

Q: And the “Number of Subjects” value ([1]; NA-1 1.50 mg/kg (n = 8), Day 1, 0.17 hr)?
A: 0

Q: What about the “Number of Subjects” value ([1]; NA-1 1.50 mg/kg (n = 8), Day 1, 0.25 hr) of the same sequence?
A: 0

Q: What about the “Number of Subjects” value ([1]; NA-1 1.50 mg/kg (n = 8), Day 1, 0.50 hr) of the same sequence?
A: 0

Q: And the “Number of Subjects” value ([1]; NA-1 1.50 mg/kg (n = 8), Day 1, 1.00 hr)?
A: 0

Q: And the “Number of Subjects” value ([1]; NA-1 1.50 mg/kg (n = 8), Day 1, 2.00 hr)?
A: 0

Q: And the “Number of Subjects” value ([1]; NA-1 1.50 mg/kg (n = 8), Day 1, 24.00 hr)?
A: 0

Q: What about the “Number of Subjects” value ([1]; NA-1 1.50 mg/kg (n = 8), Day 7) of the same sequence?
A: 0

Q: And the “Number of Subjects” value ([1]; NA-1 1.50 mg/kg (n = 8), Day 14)?
A: 0

Q: What about the “Number of Subjects” value ([1]; NA-1 1.50 mg/kg (n = 8), Day 28 End-of-study) of the same sequence?
A: 0

Q: What about the “Number of Subjects” value ([1]; NA-1 1.50 mg/kg (n = 8), Screening) of the same sequence?
A: 0

Q: And the “Number of Subjects” value ([1]; NA-1 2.60 mg/kg (n = 8), Day 1, 0.00 hr)?
A: 0

Q: And the “Number of Subjects” value ([1]; NA-1 2.60 mg/kg (n = 8), Day 1, 0.08 hr)?
A: 0

Q: And the “Number of Subjects” value ([1]; NA-1 2.60 mg/kg (n = 8), Day 1, 0.17 hr)?
A: 0

Q: And the “Number of Subjects” value ([1]; NA-1 2.60 mg/kg (n = 8), Day 1, 0.25 hr)?
A: 0

Q: And the “Number of Subjects” value ([1]; NA-1 2.60 mg/kg (n = 8), Day 1, 0.50 hr)?
A: 0

Q: What about the “Number of Subjects” value ([1]; NA-1 2.60 mg/kg (n = 8), Day 1, 1.00 hr) of the same sequence?
A: 0

Q: And the “Number of Subjects” value ([1]; NA-1 2.60 mg/kg (n = 8), Day 1, 2.00 hr)?
A: 0

Q: What about the “Number of Subjects” value ([1]; NA-1 2.60 mg/kg (n = 8), Day 1, 24.00 hr) of the same sequence?
A: 0

Q: What about the “Number of Subjects” value ([1]; NA-1 2.60 mg/kg (n = 8), Day 7) of the same sequence?
A: 0

Q: What about the “Number of Subjects” value ([1]; NA-1 2.60 mg/kg (n = 8), Day 14) of the same sequence?
A: 0

Q: And the “Number of Subjects” value ([1]; NA-1 2.60 mg/kg (n = 8), Day 28 End-of-study)?
A: 0

Q: And the “Number of Subjects” value ([1]; NA-1 2.60 mg/kg (n = 8), Screening)?
A: 0

Q: What about the “Number of Subjects” value ([1]; NA-1 3.75 mg/kg (n = 8), Day 1, 0.00 hr) of the same sequence?
A: 0

Q: And the “Number of Subjects” value ([1]; NA-1 3.75 mg/kg (n = 8), Day 1, 0.08 hr)?
A: 0

Q: And the “Number of Subjects” value ([1]; NA-1 3.75 mg/kg (n = 8), Day 1, 0.17 hr (10 minutes))?
A: 7 of the 8

Q: And the “Number of Subjects” value ([1]; NA-1 3.75 mg/kg (n = 8), Day 1, 0.17 hr (10 minutes), listed as NA 1, 3.75 mg/kg)?
A: Seven of 8

Q: What about the “Number of Subjects” value ([1]; NA-1 3.75 mg/kg (n = 8), Day 1, 0.17 hr (10 minutes), listed as NA-1, 3.75 mg/kg) of the same sequence?
A: 7

Q: What about the “Number of Subjects” value ([1]; NA-1 3.75 mg/kg (n = 8), Day 1, 0.25 hr (15 minutes)) of the same sequence?
A: 3

Q: What about the “Number of Subjects” value ([1]; NA-1 3.75 mg/kg (n = 8), Day 1, 0.50 hr) of the same sequence?
A: 0

Q: And the “Number of Subjects” value ([1]; NA-1 3.75 mg/kg (n = 8), Day 1, 1.00 hr)?
A: 0

Q: What about the “Number of Subjects” value ([1]; NA-1 3.75 mg/kg (n = 8), Day 1, 2.00 hr) of the same sequence?
A: 0

Q: And the “Number of Subjects” value ([1]; NA-1 3.75 mg/kg (n = 8), Day 1, 24.00 hr)?
A: 0

Q: And the “Number of Subjects” value ([1]; NA-1 3.75 mg/kg (n = 8), Day 7)?
A: 0

Q: What about the “Number of Subjects” value ([1]; NA-1 3.75 mg/kg (n = 8), Day 14) of the same sequence?
A: 0

Q: What about the “Number of Subjects” value ([1]; NA-1 3.75 mg/kg (n = 8), Day 28 End-of-study) of the same sequence?
A: 0

Q: What about the “Number of Subjects” value ([1]; NA-1 3.75 mg/kg (n = 8), Screening) of the same sequence?
A: 0

Q: What about the “Time for abnormal histamine results to return to the normal range” value ([1]; after drug administration) of the same sequence?
A: ≤ 24.00 h

Q: What about the “Abnormal histamine levels in other dose groups” value ([1]; dose groups other than 3.75 mg/kg) of the same sequence?
A: no treatment group had significant abnormal levels of histamine

Q: What about the “Dogs with transient drop in blood pressure” value ([2]; 5 mg/kg) of the same sequence?
A: 4 of 6

Q: And the “Duration of transient drop in blood pressure” value ([2]; 5 mg/kg)?
A: approximately 30 minutes

Q: And the “Effects on blood pressure” value ([2]; 0.25 or 1.0 mg/kg)?
A: No effects
